Legend:
[1] = target: T1, HiBit-BRG1 fusion protein (Homo sapiens, UniProt P51532); assay: HiBiT-BRG1 cell-based degradation assay (Nano-Glo HiBiT Lytic Detection, 24 h); conditions: HeLa cells expressing HiBit-BRG1 and LgBit; for DC50: read-out: BRG1 HiBit Degradation IC50; for Dmax: HeLa, top dose 30 μM, read-out: BRG1 HiBit Degradation Maximum measured
T1 construct: expressed in transfected cells
Outline: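 Stable HeLa line expressing HiBiT-BRG1 and LgBiT, seeded at 5000 cells/well; luminescence read after lytic Nano-Glo HiBiT reagent and 10 min shaking at RT. % degradation normalised between DMSO (high control) and 2 μM reference BRM/BRG1 degrader (low control).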

HiBit-BRM fusion protein = target: T2, HiBit-BRM fusion protein (Homo sapiens, UniProt P51531); assay: HiBiT-BRM cell-based degradation assay (Nano-Glo HiBiT Lytic Detection, 24 h); conditions: HeLa cells expressing HiBiT-BRM; for DC50: read-out: BRM HiBit Degradation IC50; for BRM HiBit Degradation Maximum measured: top dose 30 μM
T2 construct: expressed in transfected cells
T2 sequence (P51531 whole entry, the tested form may be a part): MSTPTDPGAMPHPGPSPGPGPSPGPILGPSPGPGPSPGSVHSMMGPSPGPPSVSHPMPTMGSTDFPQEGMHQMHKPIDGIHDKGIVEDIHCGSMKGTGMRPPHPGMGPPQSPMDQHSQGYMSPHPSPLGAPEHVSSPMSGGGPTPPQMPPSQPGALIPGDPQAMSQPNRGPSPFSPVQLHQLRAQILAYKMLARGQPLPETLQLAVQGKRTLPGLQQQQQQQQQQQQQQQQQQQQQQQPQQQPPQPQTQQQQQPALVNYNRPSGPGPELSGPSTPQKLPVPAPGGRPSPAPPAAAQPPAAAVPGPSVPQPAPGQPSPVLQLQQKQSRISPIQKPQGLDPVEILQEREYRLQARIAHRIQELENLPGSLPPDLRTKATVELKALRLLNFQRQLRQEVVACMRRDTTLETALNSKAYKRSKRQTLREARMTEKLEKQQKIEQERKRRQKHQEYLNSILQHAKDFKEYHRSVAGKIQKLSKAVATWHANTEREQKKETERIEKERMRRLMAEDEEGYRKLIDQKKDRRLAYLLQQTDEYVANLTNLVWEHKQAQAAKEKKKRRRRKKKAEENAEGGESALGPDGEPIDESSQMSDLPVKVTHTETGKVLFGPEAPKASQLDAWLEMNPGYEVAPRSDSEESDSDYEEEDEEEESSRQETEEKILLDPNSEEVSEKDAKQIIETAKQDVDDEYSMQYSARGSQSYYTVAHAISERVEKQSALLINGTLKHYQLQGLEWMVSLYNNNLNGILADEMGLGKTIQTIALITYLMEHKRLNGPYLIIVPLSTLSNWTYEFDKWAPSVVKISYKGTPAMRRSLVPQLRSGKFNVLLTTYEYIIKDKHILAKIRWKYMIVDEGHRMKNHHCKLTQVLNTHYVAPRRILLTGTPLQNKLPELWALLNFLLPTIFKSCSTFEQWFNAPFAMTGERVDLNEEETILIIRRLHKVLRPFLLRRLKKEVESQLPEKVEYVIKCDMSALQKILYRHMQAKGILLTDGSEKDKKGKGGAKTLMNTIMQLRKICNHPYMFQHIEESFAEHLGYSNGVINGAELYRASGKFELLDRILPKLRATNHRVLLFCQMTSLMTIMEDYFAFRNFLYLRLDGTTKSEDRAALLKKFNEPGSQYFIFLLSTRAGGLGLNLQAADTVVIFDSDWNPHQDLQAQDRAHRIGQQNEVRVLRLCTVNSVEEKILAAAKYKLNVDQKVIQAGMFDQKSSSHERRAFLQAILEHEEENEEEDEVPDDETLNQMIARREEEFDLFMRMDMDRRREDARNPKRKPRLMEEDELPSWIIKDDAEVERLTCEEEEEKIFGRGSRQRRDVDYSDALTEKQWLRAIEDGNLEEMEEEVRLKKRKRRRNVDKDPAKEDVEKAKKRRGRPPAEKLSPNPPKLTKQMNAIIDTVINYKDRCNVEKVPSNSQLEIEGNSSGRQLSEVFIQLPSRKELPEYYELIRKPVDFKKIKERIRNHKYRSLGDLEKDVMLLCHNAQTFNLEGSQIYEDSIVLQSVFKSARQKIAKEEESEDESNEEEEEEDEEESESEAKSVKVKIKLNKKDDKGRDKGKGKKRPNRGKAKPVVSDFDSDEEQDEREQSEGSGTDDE
Outline: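 Luminescence from reconstituted NanoBiT luciferase in lysed HeLa HiBiT-BRM cells served as the measure of remaining BRM after 24 h treatment. Compounds were tested from 30 μM final downward in 3-fold steps. DMSO and 2 μM of a standard BRM/BRG1 degrader defined the scale limits.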

T1 sequence (P51532 whole entry, the tested form may be a part): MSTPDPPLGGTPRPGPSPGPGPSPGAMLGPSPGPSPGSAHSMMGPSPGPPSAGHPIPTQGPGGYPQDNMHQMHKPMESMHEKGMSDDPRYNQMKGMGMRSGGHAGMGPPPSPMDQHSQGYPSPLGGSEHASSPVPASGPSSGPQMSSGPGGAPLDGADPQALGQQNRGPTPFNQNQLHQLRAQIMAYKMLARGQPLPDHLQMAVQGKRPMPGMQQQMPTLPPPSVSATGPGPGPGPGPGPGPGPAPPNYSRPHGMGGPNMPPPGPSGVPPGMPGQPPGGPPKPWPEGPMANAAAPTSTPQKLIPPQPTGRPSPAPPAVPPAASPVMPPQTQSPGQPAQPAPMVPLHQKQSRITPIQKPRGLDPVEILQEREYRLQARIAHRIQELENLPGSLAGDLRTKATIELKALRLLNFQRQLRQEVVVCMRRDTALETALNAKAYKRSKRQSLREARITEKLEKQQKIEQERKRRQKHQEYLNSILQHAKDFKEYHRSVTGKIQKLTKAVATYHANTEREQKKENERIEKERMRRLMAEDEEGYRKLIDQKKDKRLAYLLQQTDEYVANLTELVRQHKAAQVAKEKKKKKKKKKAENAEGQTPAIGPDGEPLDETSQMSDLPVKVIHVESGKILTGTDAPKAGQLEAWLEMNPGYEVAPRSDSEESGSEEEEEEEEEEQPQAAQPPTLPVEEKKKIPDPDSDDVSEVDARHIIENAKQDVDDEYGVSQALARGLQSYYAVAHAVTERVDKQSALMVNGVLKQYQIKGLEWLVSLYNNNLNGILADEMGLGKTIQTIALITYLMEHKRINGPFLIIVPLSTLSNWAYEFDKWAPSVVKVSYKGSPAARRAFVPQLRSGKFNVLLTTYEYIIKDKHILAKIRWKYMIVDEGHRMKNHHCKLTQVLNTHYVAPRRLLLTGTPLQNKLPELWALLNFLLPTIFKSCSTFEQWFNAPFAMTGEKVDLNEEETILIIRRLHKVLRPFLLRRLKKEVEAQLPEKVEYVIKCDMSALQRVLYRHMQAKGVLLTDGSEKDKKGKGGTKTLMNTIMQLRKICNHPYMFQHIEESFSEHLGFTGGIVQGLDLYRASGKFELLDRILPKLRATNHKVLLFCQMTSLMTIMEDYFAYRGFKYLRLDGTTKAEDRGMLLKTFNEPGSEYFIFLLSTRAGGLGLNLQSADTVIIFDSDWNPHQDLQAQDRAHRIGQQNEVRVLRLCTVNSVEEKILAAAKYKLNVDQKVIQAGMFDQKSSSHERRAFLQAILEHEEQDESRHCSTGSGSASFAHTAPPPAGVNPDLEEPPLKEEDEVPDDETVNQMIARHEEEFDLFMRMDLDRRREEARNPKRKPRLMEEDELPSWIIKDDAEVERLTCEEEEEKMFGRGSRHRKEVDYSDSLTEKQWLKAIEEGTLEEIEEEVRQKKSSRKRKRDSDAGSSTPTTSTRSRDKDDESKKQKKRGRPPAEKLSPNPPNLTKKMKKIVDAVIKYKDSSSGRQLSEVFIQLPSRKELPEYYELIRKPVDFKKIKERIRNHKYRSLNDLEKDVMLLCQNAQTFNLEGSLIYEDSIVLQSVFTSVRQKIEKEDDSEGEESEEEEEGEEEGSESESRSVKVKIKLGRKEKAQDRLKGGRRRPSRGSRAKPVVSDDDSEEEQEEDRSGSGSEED

Compound | DC50 [1] | Dmax [1] | DC50 (HiBit-BRM fusion protein) | BRM HiBit Degradation Maximum measured (HiBit-BRM fusion protein)
CS(=O)(=O)n1ccc(C(=O)NCC(=O)Nc2nc(-c3cccc(-c4cccc(CNC(=O)CCOCCOCCNc5ccc6c(c5)C(=O)N(C5CCC(=O)NC5=O)C6=O)c4)c3)cs2)c1 (centres unmarked) [Compound 45, N-(2-((4-(3′-((3-(2-(2-((2-(2,6-dioxopiperidin-3-yl)-1,3-dioxoisoindolin-5-yl)amino)ethoxy)ethoxy)propanamido)-methyl)-[1,1′-biphenyl]-3-yl)thiazol-2-yl)amino)-2-oxoethyl)-1-(methylsulfonyl)-1H-pyrrole-3-carboxamide] | > 10 µM | < 50% | > 10 µM | C (‘C’ = Maximum degradation <50%)
CN(CC(=O)NCCCCCNc1cccc2c1C(=O)N(C1CCC(=O)NC1=O)C2=O)c1cc(-c2cccc(-c3csc(NC(=O)CNC(=O)c4ccn(S(C)(=O)=O)c4)n3)c2)ccn1 (centres unmarked) [Compound 16, N-(2-((4-(3-(2-((2-((5-((2-(2,6-dioxopiperidin-3-yl)-1,3-dioxoisoindolin-4-yl)amino)pentyl)amino)-2-oxoethyl)(methyl)amino)pyridin-4-yl)phenyl)thiazol-2-yl)amino)-2-oxoethyl)-1-(methylsulfonyl)-1H-pyrrole-3-carboxamide] | > 10 µM | < 50% | > 10 µM | C (‘C’ = Maximum degradation <50%)
CS(=O)(=O)n1ccc(C(=O)NCC(=O)Nc2nc(-c3cccc(-c4ccnc(C5(C(=O)NCCCCNc6ccc7c(c6)C(=O)N(C6CCC(=O)NC6=O)C7=O)CC5)c4)c3)cs2)c1 (centres unmarked) [Compound 105, N-[2-[[4-[3-[2-[1-[4-[[2-(2,6-dioxo-3-piperidyl)-1,3-dioxo-isoindolin-5-yl]amino]butylcarbamoyl]cyclopropyl]-4-pyridyl]phenyl]thiazol-2-yl]amino]-2-oxo-ethyl]-1-methylsulfonyl-pyrrole-3-carboxamide] | < 0.1 µM | > 75% | < 0.1 µM | A (‘A’ = Maximum degradation >75%)
CS(=O)(=O)n1ccc(C(=O)NCC(=O)Nc2nc(-c3cccc(-c4ccnc(C5(C(=O)NCCOCCOCCNc6cccc7c6C(=O)N(C6CCC(=O)NC6=O)C7=O)CC5)c4)c3)cs2)c1 (centres unmarked) [Compound 11, N-[2-[[4-[3-[2-[1-[2-[2-[2-[[2-(2,6-dioxo-3-piperidyl)-1,3-dioxo-isoindolin-4-yl]amino]ethoxy]ethoxy]ethylcarbamoyl]cyclopropyl]-4-pyridyl]phenyl]thiazol-2-yl]amino]-2-oxo-ethyl]-1-methylsulfonylpyrrole-3-carboxamide] | 1 to 10 µM | 50 to 75% | > 10 µM | C (‘C’ = Maximum degradation <50%)
CS(=O)(=O)n1ccc(C(=O)NCC(=O)Nc2nc(-c3cccc(-c4ccnc(N5CCN(C(=O)CCOCCOCCOc6cccc7c6C(=O)N(C6CCC(=O)NC6=O)C7=O)CC5)c4)c3)cs2)c1 (centres unmarked) [Compound 34, N-(2-((4-(3-(2-(4-(3-(2-(2-((2-(2,6-dioxopiperidin-3-yl)-1,3-dioxoisoindolin-4-yl)oxy)ethoxy)ethoxy)propanoyl)piperazin-1-yl)pyridin-4-yl)phenyl)thiazol-2-yl)amino)-2-oxoethyl)-1-(methylsulfonyl)-1H-pyrrole-3-carboxamide] | 0.1 to 1 µM | 50 to 75% | 0.1 to 1 µM | B (‘B’ = Maximum degradation ≥50% and ≤75%)
Cc1ncsc1-c1ccc(CNC(=O)[C@@H]2C[C@@H](O)CN2C(=O)[C@@H](NC(=O)CCCCCC(=O)N2CCN(c3cc(-c4cccc(-c5csc(NC(=O)CNC(=O)c6ccn(S(C)(=O)=O)c6)n5)c4)ccn3)CC2)C(C)(C)C)cc1 [Compound 86, N-(2-((4-(3-(2-(4-(7-(((S)-1-((2S,4R)-4-hydroxy-2-((4-(4-methylthiazol-5-yl)benzyl)carbamoyl)pyrrolidin-1-yl)-3,3-dimethyl-1-oxobutan-2-yl)amino)-7-oxoheptanoyl)piperazin-1-yl)pyridin-4-yl)phenyl)thiazol-2-yl)amino)-2-oxoethyl)-1-(methylsulfonyl)-1H-pyrrole-3-carboxamide] | 0.1 to 1 µM | 50 to 75% | 0.1 to 1 µM | B (‘B’ = Maximum degradation ≥50% and ≤75%)
CS(=O)(=O)n1ccc(C(=O)N[C@@H](COCc2ccc(C(=O)NCCC3CCN(c4ccc5c(c4)C(=O)N(C4CCC(=O)NC4=O)C5=O)CC3)cc2)C(=O)Nc2nc(-c3ccccc3)cs2)c1 (stereo partly drawn) [Compound 245, N-(2-[1-[2-(2,6-dioxopiperidin-3-yl)-1,3-dioxoisoindol-5-yl]piperidin-4-yl]ethyl)-4-[[(2S)-2-[(1-methanesulfonylpyrrol-3-yl)formamido]-2-[(4-phenyl-1,3-thiazol-2-yl)carbamoyl]ethoxy]methyl]benzamide] | < 0.1 µM | > 75% | < 0.1 µM | A (‘A’ = Maximum degradation >75%)
CS(=O)(=O)n1ccc(C(=O)NC(CCOCCCC(=O)NC2CCN(CCOc3ccc4c(c3)C(=O)N(C3CCC(=O)NC3=O)C4=O)CC2)C(=O)Nc2nc(-c3ccccc3)cs2)c1 [Compound 279, (2S)-4-(3-[[1-(2-[[2-(2,6-dioxopiperidin-3-yl)-1,3-dioxoisoindol-5-yl]oxylethyl)piperidin-4-yl]carbamoyl]propoxy)-2-[(1-methanesulfonylpyrrol-3-yl)formamido]-N-(4-phenyl-1,3-thiazol-2-yl)butanamide; formic acid] | > 10 µM | < 50% | > 10 µM | C (‘C’ = Maximum degradation <50%)
Cc1cc(C(=O)NCC(=O)Nc2nc(-c3cccc(-c4ccnc(N(C)CC(=O)NCCOCCOCCNc5cccc6c5C(=O)N(C5CCC(=O)NC5=O)C6=O)c4)c3)cs2)cn1S(C)(=O)=O (centres unmarked) [Compound 122, N-(2-((4-(3-(2-((2-((2-(2-(2-((2-(2,6-dioxopiperidin-3-yl)-1,3-dioxoisoindolin-4-yl)amino)ethoxy)ethoxy)ethyl)amino)-2-oxoethyl)(methyl)amino)pyridin-4-yl)phenyl)thiazol-2-yl)amino)-2-oxoethyl)-5-methyl-1-(methylsulfonyl)-1H-pyrrole-3-carboxamide] | > 10 µM | < 50% | > 10 µM | C (‘C’ = Maximum degradation <50%)
CN(CCNC(=O)COc1ccc2c(c1)C(=O)N(C1CCC(=O)NC1=O)C2=O)CCNC(=O)C1(c2cc(-c3cccc(-c4csc(NC(=O)CNC(=O)c5ccn(S(C)(=O)=O)c5)n4)c3)ccn2)CC1 (centres unmarked) [Compound 111, N-[2-[[4-[3-[2-[1-[2-[2-[[2-[2-(2,6-dioxo-3-piperidyl)-1,3-dioxo-isoindolin-5-yl]oxyacetyl]amino]ethyl-methylamino]ethylcarbamoyl]cyclopropyl]-4-pyridyl]phenyl]thiazol-2-yl]amino]-2-oxo-ethyl]-1-methylsulfonyl-pyrrole-3-carboxamide] | > 10 µM | < 50% | > 10 µM | C (‘C’ = Maximum degradation <50%)
Cc1ncsc1-c1ccc(CNC(=O)[C@@H]2C[C@@H](O)CN2C(=O)[C@@H](NC(=O)COCCOCCOCCNC(=O)CCCOC[C@H](NC(=O)c2ccn(S(C)(=O)=O)c2)C(=O)Nc2nc(-c3ccccc3)cs2)C(C)(C)C)cc1 [Compound 225, (2S,4R)-4-hydroxy-1-[(2S)-2-(2-[2-[2-(2-[4-[(2S)-2-[(1-methanesulfonylpyrrol-3-yl)formamido]-2-[(4-phenyl-1,3-thiazol-2-yl)carbamoyl]ethoxy]butanamido]ethoxy)ethoxy]ethoxy]acetamido)-3,3-dimethylbutanoyl]-N-[[4-(4-methyl-1,3-thiazol-5-yl)phenyl]methyl]pyrrolidine-2-carboxamide] | > 10 µM | < 50% | > 10 µM | C (‘C’ = Maximum degradation <50%)
CS(=O)(=O)n1ccc(C(=O)NCC(=O)Nc2nc(-c3cccc(-c4ccnc(C5(C(=O)NCCOCCOCCNc6ccc7c(c6)C(=O)N(C6CCC(=O)NC6=O)C7=O)CC5)c4)c3)cs2)c1 (centres unmarked) [Compound 101, N-[2-[[4-[3-[2-[1-[2-[2-[2-[[2-(2,6-dioxo-3-piperidyl)-1,3-dioxo-isoindolin-5-yl]amino]ethoxy]ethoxy]ethylcarbamoyl]-cyclopropyl]-4-pyridyl]phenyl]thiazol-2-yl]amino]-2-oxo-ethyl]-1-methylsulfonylpyrrole-3-carboxamide] | > 10 µM | < 50% | > 10 µM | C (‘C’ = Maximum degradation <50%)
CS(=O)(=O)n1ccc(C(=O)NCC(=O)Nc2nc(-c3cccc(-c4cccc(CNC(=O)CCCOc5cccc6c5C(=O)N(C5CCC(=O)NC5=O)C6=O)c4)c3)cs2)c1 (centres unmarked) [Compound 30] | > 10 µM | < 50% | > 10 µM | C (‘C’ = Maximum degradation <50%)
CS(=O)(=O)n1ccc(C(=O)NCC(=O)Nc2nc(-c3cccc(-c4ccnc(C5(C(=O)NCCNc6ccc7c(c6)C(=O)N(C6CCC(=O)NC6=O)C7=O)CC5)c4)c3)cs2)c1 (centres unmarked) [Compound 133, N-(2-[[2-(2,6-dioxopiperidin-3-yl)-1,3-dioxoisoindol-5-yl]amino]ethyl)-1-[4-[3-(2-[2-[(1-methanesulfonylpyrrol-3-yl)formamido]acetamido]-1,3-thiazol-4-yl)phenyl]pyridin-2-yl]cyclopropane-1-carboxamide] | < 0.1 µM | > 75% | 0.1 to 1 µM | B (‘B’ = Maximum degradation ≥50% and ≤75%)

Reference: patent US12662479B2 (Foghorn Therapeutics Inc., priority 2020, dated 2026)
